Laboratory results as given in PubChem BioAssay (NCI).
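48-hour exposure; five concentrations; linearly interpolated endpoints. GI50 is the concentration that inhibits growth by half. TGI: total growth inhibition.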

Tests used:
Assay in all cases: DTP human tumour cell line panel, 48 h
[1] = tested on: COLO 205 colon
[2] = tested on: MCF7 breast
[3] = tested on: MDA-MB-231 breast
[4] = tested on: SF-295 CNS
[5] = tested on: SK-MEL-5 melanoma
[6] = tested on: 786-0 renal
[7] = tested on: UACC-62 melanoma
[8] = tested on: HCT-116 colon
[9] = tested on: U251 CNS
[10] = tested on: HOP-92 NSCLC
[11] = tested on: SK-MEL-28 melanoma
[12] = tested on: NCI-H460 lung
[13] = tested on: OVCAR-8 ovarian
[14] = tested on: SF-268 CNS
[15] = tested on: DU-145 prostate
[16] = tested on: HCT-15 colon
[17] = tested on: OVCAR-4 ovarian
[18] = tested on: LOX IMVI melanoma
[19] = tested on: T-47D breast
[20] = tested on: EKVX NSCLC
[21] = tested on: SR leukemia
[22] = tested on: KM12 colon
[23] = tested on: SNB-19 CNS
[24] = tested on: OVCAR-5 ovarian
[25] = tested on: NCI/ADR-RES ovarian
[26] = tested on: NCI-H226 lung
[27] = tested on: MDA-MB-435
[28] = tested on: OVCAR-3 ovarian
[29] = tested on: NCI-H23 lung
[30] = tested on: HOP-62 NSCLC
[31] = tested on: NCI-H522 lung
[32] = tested on: A549 NSCLC
[33] = tested on: BT-549 breast
[34] = tested on: RPMI-8226 leukemia
[35] = tested on: HCC-2998 colon
[36] = tested on: A498 renal
[37] = tested on: SW-620 colon
[38] = tested on: M14 melanoma
[39] = tested on: ACHN renal
[40] = tested on: CCRF-CEM leukemia
[41] = tested on: PC-3 prostate
[42] = tested on: RXF 393 renal
[43] = tested on: SNB-75 CNS
[44] = tested on: HT29 colon
[45] = tested on: MALME-3M melanoma
[46] = tested on: IGROV1 ovarian
[47] = tested on: UO-31 renal
[48] = tested on: SK-OV-3 ovarian
[49] = tested on: MOLT-4 leukemia
[50] = tested on: SF-539 CNS
[51] = tested on: HS 578T breast
[52] = tested on: UACC-257 melanoma
[53] = tested on: SK-MEL-2 melanoma
[54] = tested on: HL-60(TB) leukemia
[55] = tested on: CAKI-1 renal
[56] = tested on: K-562 leukemia
[57] = tested on: SN12C renal
[58] = tested on: TK-10 renal

## CCOC(=O)[C@@H](N)CCC(=O)N[C@@H](CSCc1ccccc1)C(=O)N[C@@H](C(=O)OCC)c1ccccc1
[1]
  GI50: 17.4 µM
  TGI: 34.2 µM
[2]
  GI50: 16.5 µM
  TGI: 33.9 µM
[3]
  GI50: 18.1 µM
  TGI: 34.1 µM
[4]
  GI50: 18.3 µM
  TGI: 40.2 µM
[5]
  GI50: 14.2 µM
  TGI: 27.5 µM
[6]
  GI50: 17.7 µM
  TGI: 33.7 µM
[7]
  GI50: 17.1 µM
  TGI: 33 µM
[8]
  GI50: 18.3 µM
  TGI: 36.8 µM
[9]
  GI50: 16.6 µM
  TGI: 31.3 µM
[10]
  GI50: 10.9 µM
  TGI: 24.2 µM
[11]
  GI50: 16.7 µM
  TGI: 31.7 µM
[12]
  GI50: 27.1 µM
  TGI: > 69.8 µM
[13]
  GI50: 16.8 µM
  TGI: 32.5 µM
[14]
  GI50: 16.6 µM
  TGI: 31.3 µM
[15]
  GI50: 38.3 µM
  TGI: > 100 µM
[16]
  GI50: 33.7 µM
  TGI: > 71.2 µM
[17]
  GI50: 27.5 µM
  TGI: > 57.1 µM
[18]
  GI50: 16.7 µM
  TGI: 32.1 µM
[19]
  GI50: 14.8 µM
  TGI: 33.8 µM
[20]
  GI50: 25.2 µM
  TGI: > 73.3 µM
[21]
  GI50: 9.97 µM
  TGI: 33.2 µM
[22]
  GI50: 18.1 µM
  TGI: 33.8 µM
[23]
  GI50: 18.8 µM
  TGI: 38 µM
[24]
  GI50: > 100 µM
  TGI: > 100 µM
[25]
  GI50: > 100 µM
  TGI: > 100 µM
[26]
  GI50: 16.4 µM
  TGI: 37.5 µM
[27]
  GI50: 16.5 µM
  TGI: 32.4 µM
[28]
  GI50: 16.7 µM
  TGI: 30.7 µM
[29]
  GI50: 18.8 µM
  TGI: 40.9 µM
[30]
  GI50: 16.6 µM
  TGI: 32.8 µM
[31]
  GI50: 16.2 µM
  TGI: 32.4 µM
[32]
  GI50: > 73.2 µM
  TGI: > 100 µM
[33]
  GI50: 17.5 µM
  TGI: 33 µM
[34]
  GI50: 17.8 µM
  TGI: 45.1 µM
[35]
  GI50: 16.7 µM
  TGI: 32.2 µM
[36]
  GI50: 17.2 µM
  TGI: 38.8 µM
[37]
  GI50: 20.7 µM
  TGI: 49.2 µM
[38]
  GI50: 19 µM
  TGI: 37.2 µM
[39]
  GI50: 18.6 µM
  TGI: 34.8 µM
[40]
  GI50: 21.8 µM
  TGI: > 67.7 µM
[41]
  GI50: 16.5 µM
  TGI: 37.3 µM
[42]
  GI50: 14.1 µM
  TGI: 27.5 µM
[43]
  GI50: 13 µM
  TGI: 26.4 µM
[44]
  GI50: 16.6 µM
  TGI: 33.6 µM
[45]
  GI50: 19.7 µM
  TGI: 36.2 µM
[46]
  GI50: 19.3 µM
  TGI: 36.4 µM
[47]
  GI50: 34.5 µM
  TGI: > 59.5 µM
[48]
  GI50: 16.6 µM
  TGI: 31.5 µM
[49]
  GI50: 24.8 µM
  TGI: > 71.4 µM
[50]
  GI50: 17.6 µM
  TGI: 33.8 µM
[51]
  GI50: 16.6 µM
  TGI: 47.3 µM
[52]
  GI50: 15.4 µM
  TGI: 29.7 µM
[53]
  GI50: 16.7 µM
  TGI: 32.7 µM
[54]
  GI50: 18.5 µM
  TGI: 39.5 µM
[55]
  GI50: 22.2 µM
  TGI: > 53 µM
[56]
  GI50: 22.2 µM
  TGI: 75 µM
[57]
  GI50: 18 µM
  TGI: 34.9 µM
[58]
  GI50: 16.6 µM
  TGI: 32.7 µM
